We go through 87 compounds from a melting point compilation (Tetko et al.; mined from patent text by program, amines drawn as free bases though some values may be those of a salt).

Bounds are passed on as bounds.

The term melting point denotes the temperature, or range, at which the solid turns liquid.

`O=C(O)CC(F)C(=O)c1ccc(-c2ccc(Cl)cc2)cc1` (configuration not stated): the melting point lay within 170 to 173 °C.

`CC(C)=CC(n1cncn1)C(C)(O)C(C)(C)C` (configuration not stated) returned a melting point of 115 to 116 °C.

In turn, `COCC(=O)c1c[nH]c2ncc(-c3cc(OC)c(OC)c(OC)c3)nc12` displayed a melting point of 229 to 230 °C.

`CCCCCCCCCCCCCCCCCCOC(=O)C(N)Cc1ccc(O)cc1` (configuration not stated) showed a melting point of 80 to 83 °C.

Compound `NC(=O)c1nnn(Cc2ccccc2Br)c1N` registered a melting point of 211 to 213 °C.

Consider `c1cc(-c2nc3cc4[nH]cnc4cc3[nH]2)ccn1`, for which the melting point is over 280 °C.

In the case of `Oc1cc2ccccc2c(Br)c1O`, the melting point fell in the range of 98 to 102 °C.

As to `COC(=O)NC=Cc1ccc(OCC(O)CNC(C)CC#N)cc1` (configuration not stated), the melting point fell in the range of 122 to 123 °C.

`COc1cc2c(c(OC(C)=O)c1)C1CCC3(C)C(OC(C)=O)CCC3C1CC2` (configuration not stated) showed a melting point of 120 to 121 °C.

`COC(=O)CNc1cccc(I)c1` displayed a melting point of 83 °C.

`Cc1[nH]cnc1C=CC(=O)c1cn2c3c(cccc13)CCC2` registered a melting point of 108 to 110 °C.

Regarding `CCCCCCCCCCCC(CC(=O)NC(CCCNC(=O)OCc1ccccc1)COC1CCCCO1)OCc1ccccc1` (configuration not stated), the melting point lay within 84 to 86 °C.

`Cc1c(NC(=O)CC(C)(C)C)c(C)c2c(c1-c1ccoc1)OCC2c1ccc(C(C)C)cc1` (configuration not stated) yielded a melting point of 183 to 185 °C.

`Cc1ccc(S(=O)(=O)OCC2COc3ccccc3C2)cc1` (configuration not stated): the melting point lay within 83 to 84 °C.

For `CCOC(=O)c1cc(C)n(-c2cccc(N(C)C)c2)c1-c1ccccc1`, the melting point is 112 to 114 °C.

The compound `FC(F)(F)c1cccc(-c2ncn(CC3CC3)c2-c2ccncc2)c1` gave a melting point of 106 °C.

`O=C(Nc1ccc(Cl)cc1F)c1cc(-c2ccc(F)cc2F)ccc1O` registered a melting point of 245 to 246 °C.

Consider `COc1ccc2ccc(N3C(=O)c4ccccc4C3OCC(=O)NCCN(C)C)nc2n1` (configuration not stated), for which the melting point turned out to be 146 °C.

In the case of `CCCOc1ccc(-c2ccc(-c3ccccc3Cl)n2Cc2ccc(OCCO)c(N)n2)cc1`, the melting point was 89 to 92 °C.

The compound `CC(=O)SCC(Cc1ccccc1)C(=O)Nc1ccc(N2CCCC2)c(C(=O)O)c1` (configuration not stated) registered a melting point of 176 to 178 °C.

Compound `Cc1cc(C2(C(F)(F)F)CC(n3cncn3)=NO2)ccc1NC(=O)c1cccc(I)c1C(=O)NC(C)C` (configuration not stated) came in with a melting point of 131 to 133 °C.

`CCOC(=O)CCc1cc(-c2ccc(C)cc2)n(-c2ccc(S(N)(=O)=O)cc2)n1` yielded a melting point of 116 to 117 °C.

Consider `CCc1nc2c(N)nc3cccnc3c2n1NCCCNS(C)(=O)=O`, for which the melting point fell in the range of 176 to 178 °C.

Compound `CC(C)N(CCn1c(-c2ccc(O)cc2)cc2c1CCCC2)C(C)C` returned a melting point of 112 to 114 °C.

Regarding `Nc1sc(-c2ccc(Cl)cc2)c(CN(C2CCCCC2)C2CCCCC2)c1C(=O)c1ccc(Cl)cc1`, the melting point is 200 to 204 °C.

On to `Cc1nccnc1OCC1COC(C)(C)O1` (configuration not stated), for which the melting point was 77 to 78 °C.

`Cc1cc(C)cc(-c2nc(NC(=O)Cc3ccccc3)sc2-c2ccncc2)c1` gave a melting point of 226 to 229 °C.

On to `NC(=O)c1nc(-c2cccc(O)c2)nc2c1[nH]c(=O)n2[C@H]1CC[C@H](O)CC1`, for which the melting point was in the range of 355 to 357 °C.

Compound `C=C(Cl)C[C@H](CC(=O)O)C(=O)N[C@@H](CC1CCCCC1)[C@@H](O)[C@@H](O)CC(C)C` registered a melting point of 193 to 196 °C.

Consider `CCN(CC)C(C)COc1ccc(NC(=O)C#Cc2ccc(Cl)cc2Cl)cc1` (configuration not stated), for which the melting point fell in the range of 70 to 72 °C.

Take `COc1cc(N(C(=O)COCCOCC(N)=O)c2cc(OC)cc3ccc(C)nc23)c2nc(C)ccc2c1`: the melting point lay within 191 to 193 °C.

`NC(=O)CC1C=CC=CC1(F)F` (configuration not stated) returned a melting point of 113 to 114 °C.

Regarding `Cc1cccc2[nH]c3c4c(Cl)cccc4nc-3cc12`, the melting point lay within 170 to 172 °C.

For `COC1CCCC(C2NC(=O)C2C(C)O[Si](C)(C)C(C)(C)C)C1O` (configuration not stated), the melting point fell in the range of 146 to 148 °C.

For `N#Cc1ccc(-c2ccc(OCCCC(=O)NO)cc2)cc1`, the melting point lay in the range of 170 to 172 °C.

`O=c1[nH]c2sc(I)nc2c2ccccc12` showed a melting point of over 250 °C.

Regarding `COc1ccc(C2=NN(c3ccc(OCc4ccccc4)cc3)C(=O)[C@@H]3CC=CC[C@H]23)cc1OC`, the melting point was 104 to 105 °C.

`CC(O)=C(C#N)CC(=O)Nc1ccc(OCCCI)cc1` displayed a melting point of 149 °C.

On to `CC1CCC2(C)C(=CCC3C4CC(C)C(=O)C4(C)CCC32)C1` (configuration not stated), for which the melting point is 109 to 110 °C.

`O=C(Nc1cccc(C(F)(F)F)c1)N1CCCCc2cc(O)ccc21` came in with a melting point of 172 to 173 °C.

Take `CCOC(=O)Nc1ccc(-c2cccs2)s1`: the melting point came out at 76 °C.

`COC(=O)c1ccc(=O)n(Cc2ccc(-c3ccccc3)cc2)c1` displayed a melting point of 130 to 133 °C.

`O=c1cc(-c2cc[nH]n2)oc2ccccc12` had a melting point of 143 to 144 °C.

In the case of `CC1(c2ccc(CNC(=O)CCl)cc2)Cc2cc(OCC(=O)O)c(Cl)c(Cl)c2C1=O` (configuration not stated), the melting point lay within 138 to 141 °C.

In the case of `c1ccc(C(c2ccc3[nH]nnc3c2)n2cncn2)cc1` (configuration not stated), the melting point stood at 183 °C.

`CN(CC(=O)N1c2ccccc2N(Cc2ccccc2)C(=O)[C@H]2CCC[C@H]21)Cc1ccccc1` (relative stereo) had a melting point of 75 to 78 °C.

The compound `Cc1cnc(NC(=O)C(c2ccccc2)c2ccccc2)o1` registered a melting point of 166 to 168 °C.

`CC1=C(c2ccc(O)cc2)C(=O)c2ccc(O)cc21` registered a melting point of 138 to 146 °C.

For the compound `C/C=C/CC(=O)N[C@H]1CC[C@H](CCN2CCC(c3cccc4c3CCO4)CC2)CC1`, the melting point amounted to 196 °C.

Compound `CCC(=CC(COC(N)=O)=NO)C(C)[N+](=O)[O-]` (configuration not stated) displayed a melting point of 69 to 72 °C.

Regarding `CC(C)(C)[Si](C)(C)OCCn1cc([N+](=O)[O-])cn1`, the melting point is 63 to 64 °C.

For `COC(=O)c1cc(C(C)(C)C(=O)OC)ccc1N`, the melting point was in the range of 58 to 60 °C.

With `Cc1nc(N2CCN(Cc3ccccc3)C2=O)sc1C(=O)NCc1cccc(Cl)c1`, the melting point fell in the range of 178 to 179 °C.

Regarding `O=C1Nc2ccccc2C(=NO)C1=O`, the melting point was in the range of 241 to 242 °C.

`C=CCOC(=O)CSc1cccc(NC(=O)NCC(=O)N(CC(=O)OC(C)(C)C)c2ccccc2C(=O)c2ccccc2)c1` displayed a melting point of 155 to 157 °C.

The compound `CCN(CC)c1ccc(-c2cc(-c3ccc(C(=O)O)cc3)ccc2CCCNC2CCCC2)cc1C(C)(C)C` returned a melting point of 255 °C.

`O=C(O)CSSc1ccc([N+](=O)[O-])cc1C(Cl)(Cl)Cl`: the melting point turned out to be 140 °C.

As for `CCc1[nH]c2cc(C)c(Oc3ccc(OC(F)(F)F)cc3)cc2c(=O)c1C`, the melting point was in the range of 281 to 283 °C.

For the compound `COC(=O)CCCCC#Cc1cc(Cl)ccc1N`, the melting point is 66 °C.

Regarding `CON=Cc1ccc2c(c1CN1CCN(C)CC1)OCO2`, the melting point lay in the range of 100 to 102 °C.

In the case of `C=CCn1c(-c2ccccc2[N+](=O)[O-])nc2ccccc21`, the melting point is 81.5 to 83 °C.

`COC(=O)[C@@H]1C(=O)CC[C@H]1C(=O)OC` (relative stereo) came in with a melting point of 49 to 50 °C.

Compound `Cc1nc2nc(/C=C3/C(=O)N4C(C(=O)O)=CS[C@H]34)nn2c2c1CCCC2` came in with a melting point of 250 °C.

Regarding `COc1ccc2sc3c(c2c1)OCCNC3=O`, the melting point was 264 to 265 °C.

Regarding `O=C1N(Cc2ccc(C(F)(F)F)o2)c2ccc(F)cc2C12COc1cc3c(cc12)OCO3` (configuration not stated), the melting point is 139 to 141 °C.

As for `Cc1cc(-c2ccc(Cl)cc2)nc(-n2cnc(-c3ccc(S(N)(=O)=O)cc3)c2)n1`, the melting point was 312 °C.

Take `CN1CCN(c2ccc(-c3nc4c(N[C@H]5[C@@H](C(N)=O)[C@@H]6C=C[C@H]5C6)c(Br)cnc4[nH]3)cc2)CC1`: the melting point fell in the range of 215 to 218 °C.

`CCOCc1nc2c(N)nc3cc(-c4cccc(C(=O)N5CCOCC5)c4)cnc3c2n1CC(C)(C)F`: the melting point fell in the range of 167 to 168 °C.

`O=C(O)CCCCCc1nn(-c2ccccc2)c2c1CCC2`: the melting point was 95 to 96 °C.

For `Cc1ccc(C)c(C2CC(=O)C=C(N)C2)c1` (configuration not stated), the melting point is 169 to 170 °C.

As for `COC(=O)c1nc2cc(F)ccc2c(O)c1C(=O)OC`, the melting point amounted to 228 °C.

As to `CCOC(=O)C1=CC2(CCC1S(=O)(=O)Nc1ccc(F)cc1Cl)OCCS2` (configuration not stated), the melting point was 133 to 134 °C.

In turn, `CC(NSC(=O)OC(C)(C)C)C(=O)n1c(=O)[nH]c2ccccc21` (configuration not stated) yielded a melting point of 101 °C.

Regarding `CC(C)(C)c1ccc(C(NC(=O)c2c(F)cccc2Cl)N2CCOCC2)cc1` (configuration not stated), the melting point lay within 180 to 181 °C.

In turn, `CCc1nc(NC)sc1C(=O)c1ccc(Cl)c([N+](=O)[O-])c1` returned a melting point of 186 to 190 °C.

Take `OCCCC1=NN(c2nc3ccccc3s2)C(O)(c2ccc(Cl)cc2)C1` (configuration not stated): the melting point was in the range of 132 to 134 °C.

As for `CCC12CCC3=C(CCc4cc(OC)ccc43)C1CCC2=O` (configuration not stated), the melting point fell in the range of 110 to 125 °C.

The compound `N#Cc1ccc2cc(-c3cccc(O)c3)oc2c1` had a melting point of 225 to 227 °C.

For the compound `CC(=O)c1cc(N(C)C)ccc1NC(=O)c1cccc(OCc2ccccc2)c1`, the melting point lay within 147 to 149 °C.

`CC(C)C[C@H](NC(=O)N1CCCCCC1)C(=O)N[C@](C)(Cc1ccc(OCc2ccccc2)cc1)C(=O)OC(C)(C)C` had a melting point of 46 to 49 °C.

Turning to `C#CC1(OC(=O)c2ccccc2)C(COC(=O)c2ccc(Cl)cc2)OC(OC(=O)c2ccccc2)C1OC(=O)c1ccccc1` (configuration not stated), the melting point was 66 to 68 °C.

Regarding `CCc1cn(C2CC(O)C(CN(C)Cc3ccccc3)O2)c(=O)[nH]c1=O` (configuration not stated), the melting point is 135 to 137 °C.

`CCOC(=O)c1sc(=O)[nH]c1C(Cl)(Cl)Cl` had a melting point of 109 to 110 °C.

`CCCc1nn2ncc(C(=O)O)c2n1Cc1ccc(-c2ccccc2-c2nc(=O)o[nH]2)cc1` displayed a melting point of 223 to 225 °C.

`Brc1ccc(C2(Cn3cncn3)OCCO2)cc1` showed a melting point of 136 °C.

On to `Cc1ccc(-c2nc(CCCOS(=O)(=O)c3ccc(C)cc3)c(C(F)(F)F)o2)cc1`, for which the melting point lay in the range of 57 to 58 °C.

`N#Cc1ccc(OCc2ccncc2)cc1OC(C(=O)O)c1ccccc1Br` (racemic) returned a melting point of 171 to 172 °C.
